# Assay results: patent US5106961A, “Erythromycin ring-contracted derivatives” (Eli Lilly and Company, priority 1989, dated 1992)
# Read-outs that look alike come from different tables or passages of the source.
# Tests used:
# Type in all cases: cell-based
# [1] = tested on: Haemophilus influenzae 76; assay: Agar-dilution MIC, Haemophilus influenzae 76; conditions: Haemophilus influenzae 76, ampicillin-resistant strain, read-out: minimal inhibitory concentration (MIC)
# Text: (§1) The compounds of formulas 1 and 2 inhibit the growth of certain pathogenic bacteria, especially Gram-positive bacteria and Gram-negative […] such as Haemophilus influenzae.
# [2] = tested on: Streptococcus faecalis 2041; assay: Agar-dilution MIC, Streptococcus faecalis 2041; conditions: Enterococcus faecalis, read-out: minimal inhibitory concentration (MIC)
# Text: as §1
# [3] = tested on: Streptococcus faecalis X66; assay: Agar-dilution MIC, Streptococcus faecalis X66; conditions: Enterococcus faecalis, read-out: minimal inhibitory concentration (MIC)
# Text: as §1
# [4] = tested on: Streptococcus pyogenes C203; assay: Agar-dilution MIC, Streptococcus pyogenes C203; conditions: read-out: minimal inhibitory concentration (MIC)
# Text: as §1
# [5] = tested on: Haemophilus influenzae C.L.; assay: Agar-dilution MIC, Haemophilus influenzae C.L.; conditions: ampicillin-sensitive strain, read-out: minimal inhibitory concentration (MIC)
# Text: as §1
# [6] = tested on: Staphylococcus epidermidis 270; assay: Agar-dilution MIC, Staphylococcus epidermidis 270; conditions: read-out: minimal inhibitory concentration (MIC)
# Text: as §1
# [7] = tested on: Staphylococcus aureus X1.1; assay: Agar-dilution MIC, Staphylococcus aureus X1.1
# Text: as §1
# [8] = tested on: Staphylococcus aureus V41; assay: Agar-dilution MIC, Staphylococcus aureus V41; conditions: Staphylococcus aureus V41, penicillin-resistant strain, read-out: minimal inhibitory concentration (MIC)
# Text: as §1
# [9] = tested on: Streptococcus pneumoniae Park I; assay: Agar-dilution MIC, Streptococcus pneumoniae Park I; conditions: read-out: minimal inhibitory concentration (MIC)
# Text: as §1
# [10] = tested on: Staphylococcus epidermidis 222; assay: Agar-dilution MIC, Staphylococcus epidermidis 222; conditions: read-out: minimal inhibitory concentration (MIC)
# Text: as §1
# [11] = Staphylococcus aureus X1.1, agar dilution, read-out: minimal inhibitory concentration (MIC)
Compound,MIC [1],MIC [2],MIC [3],MIC [4],MIC [5],MIC [6],"MIC [7, 11]",MIC [8],MIC [9],MIC [10],"MIC ([7]; Staphylococcus aureus, X1.1, read-out: minimal inhibitory concentration (MIC))"
CO[C@]1(C)C[C@H](O[C@H]2[C@H](C)[C@@H](O[C@@H]3O[C@H](C)C[C@H](N(C)C)[C@H]3O)[C@@]3(C)CC(C)=C(O3)[C@H](C)[C@H](C(C)=O)OC(=O)[C@@H]2C)O[C@@H](C)[C@@H]1O [Compound 4],16 µg/mL,128 µg/mL,16 µg/mL,64 µg/mL,16 µg/mL,> 128 µg/mL,> 128 µg/mL,> 128 µg/mL,32 µg/mL,> 128 µg/mL,–
CC[C@@H](O)[C@@](C)(O)[C@@H]1OC(=O)[C@H](C)[C@@H](O[C@H]2C[C@@](C)(OC)[C@@H](O)[C@H](C)O2)[C@H](C)[C@@H](O[C@@H]2O[C@H](C)C[C@H](N(C)C)[C@H]2O)[C@@]2(C)CC(C)=C(O2)[C@@H]1C [Compound 3],32 µg/mL,> 128 µg/mL,64 µg/mL,32 µg/mL,32 µg/mL,> 128 µg/mL,> 128 µg/mL,> 128 µg/mL,16 µg/mL,> 128 µg/mL,–
CC[C@@H](O)[C@H](C)[C@@H]1OC(=O)[C@H](C)[C@@H](O[C@H]2C[C@@](C)(OC)[C@@H](O)[C@H](C)O2)[C@H](C)[C@@H](O[C@@H]2O[C@H](C)C[C@H](N(C)C)[C@H]2O)[C@@]2(C)CC(C)=C(O2)[C@@H]1C [Compound 3a],128 µg/mL,64 µg/mL,64 µg/mL,64 µg/mL,128 µg/mL,64 µg/mL,64 µg/mL,> 128 µg/mL,64 µg/mL,64 µg/mL,–
CO[C@]1(C)C[C@H](O[C@H]2[C@H](C)[C@@H](O[C@@H]3O[C@H](C)C[C@H](N(C)C)[C@H]3O)[C@@](C)(CC(C)=O)OC(=O)[C@H](C)[C@H](C(C)=O)OC(=O)[C@@H]2C)O[C@@H](C)[C@@H]1O [Compound 8],64 µg/mL,> 128 µg/mL,64 µg/mL,128 µg/mL,64 µg/mL,> 128 µg/mL,> 128 µg/mL,> 128 µg/mL,32 µg/mL,> 128 µg/mL,–
CC[C@@H](O)[C@@](C)(O)[C@@H]1OC(=O)[C@H](C)[C@@H](O[C@H]2C[C@@](C)(OC)[C@@H](O)[C@H](C)O2)[C@H](C)[C@@H](O[C@@H]2O[C@H](C)C[C@H](N(C)C)[C@H]2O)[C@@]2(C)CC(C)(O)C(O)(O2)[C@@H]1C (some centres unmarked) [Compound 6],8 µg/mL,64 µg/mL,16 µg/mL,16 µg/mL,8 µg/mL,> 128 µg/mL,–,> 128 µg/mL,8 µg/mL,64 µg/mL,128 µg/mL
